Experimental findings from patent publication US12421212B2, “Substituted benzenecarboxamides as IL-17A modulators” (DiCE Alpha, Inc., priority 2019, dated 2025) are described below.

The first experiment deals with T1, IL-17A/A (Homo sapiens, UniProt Q16552).
T1 construct: purchased Genscript Z03228
T1 sequence (Q16552 24-155): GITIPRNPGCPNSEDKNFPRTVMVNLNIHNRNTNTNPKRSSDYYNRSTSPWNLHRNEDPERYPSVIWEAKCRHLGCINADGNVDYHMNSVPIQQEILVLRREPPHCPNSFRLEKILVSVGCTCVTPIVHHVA
As to the kind of experiment: IL-17A/A HEK-Blue Cell Assay. The format is cell-based. Conditions: HEK-Blue IL-17A reporter cell line, SEAP readout at A630, 20 hours incubation with IL-17A/A; top concentration 10 uM, 1 uM or 0.3 uM.
As for `CCC(=O)N[C@H](Cc1ccc(NC(=O)[C@@H](NC(=O)c2nonc2CC)[C@H]2CC[C@H](C)CC2)c(F)c1)C(=O)N1CCN(C)[C@@H](C)C1` [Compound 462], the “IL-17A/A inhibition (pIC50)” value is “A (compounds having a pIC50 of greater than or equal 8 as A)”.

Regarding `CCC(=O)N[C@@H](C(=O)N1CCN(C)CC1)[C@@H](C)c1ccc(NC(=O)C(NC(=O)c2ccnn2CC)C2CCc3ccccc32)c(F)c1` (single isomer, unassigned) [Compound 753], the “IL-17A/A inhibition (pIC50)” value was “X2b (compounds were evaluated up to 1 uM and inhibited activity at 1 uM by less than 20%)”.

On to `CCC(=O)N[C@@H](C(=O)N1CCN(C)CC1)[C@@H](C)c1ccc(NC(=O)C(NC(=O)c2ccnn2CC)C(OC)c2ccc(F)cc2)c(F)c1` (single isomer, unassigned) [Compound 608], for which the “IL-17A/A inhibition (pIC50)” value was “X3b (compounds were evaluated up to 0.3 uM and inhibited activity at 0.3 uM by less than 20%)”.

Turning to `CCC(=O)N[C@H](Cc1ccc(NC(=O)[C@@H](NC(=O)C(F)(F)C2(O)CCCC2)C2CCCCC2)c(F)c1)C(=O)N1CCN(C)CC1` [Compound 715], the “IL-17A/A inhibition (pIC50)” value is “X2b (compounds were evaluated up to 1 uM and inhibited activity at 1 uM by less than 20%)”.

As for `CCC(=O)N[C@H](Cc1ccc(NC(=O)[C@@H](NC(=O)c2ccnn2CC)C2Cc3ccccc3C2)c(F)c1)C(=O)N1CCN(C)CC1` [Compound 728], the “IL-17A/A inhibition (pIC50)” value is “X2a (compounds were evaluated up to 1 uM and did not inhibit activity by >80%, however they showed some activity at 1 uM (less than 80% and more than 20%))”.

Turning to `CCC(=O)NC(C(=O)N1CCN(C(C)C)CC1)[C@@H](C)c1ccc(NC(=O)[C@@H](NC(=O)c2ccnn2CC)[C@H]2CC[C@H](C)CC2)c(F)c1` (stereo partly drawn) [Compound 664], the “IL-17A/A inhibition (pIC50)” value was “X3b (compounds were evaluated up to 0.3 uM and inhibited activity at 0.3 uM by less than 20%)”.

Consider `CCC(=O)N[C@@H](C(=O)O)[C@@H](C)c1ccc(NC(=O)[C@@H](NC(=O)c2ccnn2CC)[C@H]2CC[C@H](C)CC2)c(F)c1` [Compound 661], for which the “IL-17A/A inhibition (pIC50)” value was “X3b (compounds were evaluated up to 0.3 uM and inhibited activity at 0.3 uM by less than 20%)”.

Turning to `CCn1nccc1C(=O)N[C@H](C(=O)Nc1ccc(C[C@@H](Nc2nc(N)nc(C(F)(F)F)n2)C(=O)N2CCN(C)CC2)cc1F)C1CCCCC1` [Compound 700], the “IL-17A/A inhibition (pIC50)” value was “X2a (compounds were evaluated up to 1 uM and did not inhibit activity by >80%, however they showed some activity at 1 uM (less than 80% and more than 20%))”.

Still in this experiment, the particulars now being: HEK-Blue IL-17A reporter cell line, SEAP readout at A630, 20 hours incubation with IL-17A/A; top concentration 10 uM, 1 uM or 0.3 uM; read-out: IL-17A/A inhibition (pIC50) (converted).
For `CCC(=O)N[C@H](Cc1ccc(NC(=O)[C@@H](NC(=O)c2ccnn2C(C)C)C2CCCCCC2)c(F)c1)C(=O)N1CCN(C)CC1` [Compound 238], the IC50 is 10 to 100 nM.

Regarding `C[C@@H](c1ccc(NC(=O)[C@@H](NC(=O)C(F)(F)c2cncc(C#N)c2)C2CCCCCC2)c(F)c1)[C@@H](NC(=O)c1cnns1)C(=O)N1CCN(C)CC1` [Compound 335], the IC50 is less than 10 nM.

For the compound `CCn1nccc1C(=O)N[C@H](C(=O)Nc1ccc([C@H](C)[C@@H](NC(=O)CC2CC2)C(=O)N2CCN(C)CC2)cc1F)C1CCCCCC1` [Compound 340], the IC50 is less than 10 nM.

In the case of `CCC(=O)N[C@@H](C(=O)N1CCN(C)CC1)[C@@H](C)c1ccc(NC(=O)C(NC(=O)c2nonc2CC)C2CCc3cc(F)ccc32)c(F)c1` (single isomer, unassigned) [Compound 570], the IC50 is less than 10 nM.

On to `CCC(=O)N[C@@H](C(=O)N1CCN(C)C(C)(C)C1)[C@@H](C)c1ccc(NC(=O)[C@@H](NC(=O)c2nonc2CC)[C@H]2CC[C@H](C)CC2)c(F)c1` [Compound 464], for which the IC50 is less than 10 nM.

In the case of `CCC(=O)N[C@@H](C(=O)N1CCN(C)CC1)[C@@H](C)c1ccc(NC(=O)[C@@H](NC(=O)C(F)(F)c2cccc(C#N)c2)[C@H]2CC[C@H](C(F)(F)F)CC2)c(F)c1` [Compound 286], the IC50 is 10 to 100 nM.

Regarding `CCC(=O)N[C@H](Cc1ccc(NC(=O)[C@@H](NC(=O)C(F)(F)c2ccc(OC)cc2)C2CCCCC2)c(F)c1)C(=O)N1CCN(C)CC1` [Compound 206], the IC50 was 100 to 10000 nM.

For the compound `CCn1nccc1C(=O)N[C@H](C(=O)Nc1ccc([C@H](C)[C@@H](NC(=O)c2coc(C)n2)C(=O)N2CCN(C)CC2)cc1F)C1CCCCC1` [Compound 683], the IC50 is 100 to 10000 nM.

As to `CCC(=O)N[C@@H](C(=O)N1CCN(C)CC1)[C@@H](C)c1ccc(NC(=O)[C@@H](NC(=O)c2ccnn2C(C)C)C2CCCCCC2)c(F)c1` [Compound 241], the IC50 was less than 10 nM.

As for `CCc1nonc1C(=O)N[C@H](C(=O)Nc1ccc([C@H](C)[C@@H](NC(=O)c2nonc2C)C(=O)N2CCN(C)CC2)cc1F)[C@H]1CC[C@H](C)CC1` [Compound 489], the IC50 is 10 to 100 nM.

For the compound `CCC(=O)N[C@@H](C(=O)N1CCN(C)[C@@H](C)C1)[C@@H](C)c1ccc(NC(=O)[C@@H](NC(=O)c2ccnn2CC)[C@H]2CC[C@H](C)CC2)c(F)c1` [Compound 435], the IC50 was less than 10 nM.

With `CCC(=O)N[C@@H](C(=O)N1CC(N(C)C)C1)[C@@H](C)c1ccc(NC(=O)[C@@H](NC(=O)c2ccnn2CC)C2CCCCCC2)c(F)c1` [Compound 356], the IC50 was 10 to 100 nM.

Consider `CCc1nonc1C(=O)N[C@H](C(=O)Nc1ccc([C@H](C)[C@@H](NC(=O)N2CCCC2)C(=O)N2CCN(C)CC2)cc1F)[C@H]1CC[C@H](C)CC1` [Compound 515], for which the IC50 is 10 to 100 nM.

In the case of `CCC(=O)N[C@@H](C(=O)N1CCC(C)(O)CC1)[C@@H](C)c1ccc(NC(=O)[C@@H](NC(=O)C(F)(F)c2nc(C)cs2)[C@H]2CC[C@H](C)CC2)c(F)c1` [Compound 376], the IC50 is 10 to 100 nM.

For `CCC(=O)N[C@@H](C(=O)NCC1CCC1)[C@@H](C)c1ccc(NC(=O)[C@@H](NC(=O)c2ccnn2CC)[C@H]2CC[C@H](C)CC2)c(F)c1` [Compound 345], the IC50 is 10 to 100 nM.

For the compound `CCC(=O)N[C@@H](C(=O)N1CCC(C)(O)CC1)[C@@H](C)c1ccc(NC(=O)[C@@H](NC(=O)C(F)(F)c2cccc(C#N)c2)C2CCCCCC2)c(F)c1` [Compound 355], the IC50 was less than 10 nM.

For `CCn1nccc1C(=O)N[C@H](C(=O)Nc1ccc([C@H](C)[C@@H](NC(=O)c2cc(C#N)n[nH]2)C(=O)N2CCN(C)CC2)cc1F)C1CCCCC1` [Compound 655], the IC50 was 100 to 10000 nM.

For `CCc1nonc1C(=O)N[C@H](C(=O)Nc1ccc([C@H](C)[C@@H](NC(=O)[C@H](C)CC(=O)O)C(=O)N2CCN(C)CC2)cc1F)[C@H]1CC[C@H](C)CC1` [Compound 493], the IC50 was 10 to 100 nM.

Regarding `CCC(=O)N[C@@H](C(=O)N1CCN(C)CC1)[C@@H](C)c1ccc(NC(=O)[C@@H](NC(=O)C(F)(F)C2CCCCC2)C2CCCCC2)c(F)c1` [Compound 252], the IC50 is 10 to 100 nM.

Turning to `CCC(=O)N[C@H](Cc1ccc(NC(=O)[C@@H](NC(=O)c2ccnn2CC)C2CCCCC2)c(C)c1)C(=O)N1CCN(C)CC1` [Compound 766], the IC50 was 100 to 10000 nM.

`CCC(=O)N[C@@H](C(=O)N1CCN(C)CC1)[C@@H](C)c1ccc(NC(=O)[C@@H](NC(=O)C(F)(F)c2cnn(CC)c2)C2CCCCCC2)c(F)c1` [Compound 267]: the IC50 was less than 10 nM.

As for `CCn1nccc1C(=O)N[C@H](C(=O)Nc1ccc([C@H](C)[C@@H](NC(=O)[C@H](C)OC)C(=O)N2CCN(C)CC2)cc1F)[C@H]1CC[C@H](C)CC1` [Compound 476], the IC50 was less than 10 nM.

In the case of `CCn1nccc1C(=O)N[C@H](C(=O)Nc1ccc([C@H](C)[C@@H](NS(=O)(=O)CC)C(=O)N2CCN(C)CC2)cc1F)[C@H]1CC[C@H](C)CC1` [Compound 485], the IC50 was 10 to 100 nM.

As to `[2H]C([2H])([2H])C1CCC(C(NC(=O)c2nonc2CC)C(=O)Nc2ccc([C@H](C)[C@@H](NC(=O)N(C)C3CC3)C(=O)N3CCN(C)[C@H](C)C3)cc2F)CC1` (single isomer, unassigned) [Compound 615], the IC50 was less than 10 nM.

Regarding `CCn1nccc1C(=O)N[C@H](C(=O)Nc1ccc([C@H](C)C(NC(=O)C(C)F)C(=O)N2CCN(C)[C@@H](C)C2)cc1F)[C@H]1CC[C@H](C)CC1` (single isomer, unassigned) [Compound 592], the IC50 is 10 to 100 nM.

Regarding `CCn1nccc1C(=O)N[C@H](C(=O)Nc1ccc([C@H](C)[C@@H](NC(=O)c2cnns2)C(=O)N2CCC(C)(O)CC2)cc1F)[C@H]1CC[C@H](C)CC1` [Compound 440], the IC50 was less than 10 nM.

Consider `CCC(=O)N[C@@H](C(=O)N[C@@H](C)C1CC1)[C@@H](C)c1ccc(NC(=O)[C@@H](NC(=O)c2ccnn2CC)C2CCCCCC2)c(F)c1` [Compound 537], for which the IC50 is 10 to 100 nM.

Consider `CCC(=O)N[C@@H](C(=O)N1CCN(C)CC1)[C@@H](C)c1ccc(NC(=O)[C@@H](NC(=O)c2nonc2CC)[C@H]2CC[C@H](C)CC2)c(F)c1` [Compound 278], for which the IC50 was less than 10 nM.

For the compound `CCC(=O)N[C@@H](C(=O)N1CCN(C)CC1)[C@@H](C)c1ccc(NC(=O)[C@@H](NC(=O)c2conc2C2CC2)C2CCCCCC2)c(F)c1` [Compound 269], the IC50 was less than 10 nM.

Consider `CCC(=O)N[C@H](Cc1ccc(NC(=O)[C@@H](NC(=O)c2ccnn2CC(F)(F)F)C2CCCCC2)c(F)c1)C(=O)N1CCN(C)CC1` [Compound 648], for which the IC50 is 100 to 10000 nM.

Consider `CCC(=O)N[C@@H](C(=O)N1CCN(C)CC1)[C@@H](C)c1ccc(NC(=O)[C@@H](NC(=O)c2ccnn2CC)[C@H]2CC[C@H](C)CC2)cc1` [Compound 299], for which the IC50 is 10 to 100 nM.

As to `CCC(=O)N[C@H](Cc1ccc(NC(=O)[C@@H](NC(=O)C(F)(F)c2ccc(OC)nc2)C2CCCCC2)c(F)c1)C(=O)N1CCN(C)CC1` [Compound 203], the IC50 was 100 to 10000 nM.

For the compound `CCC(=O)N[C@H](Cc1ccc(NC(=O)[C@@H](NC(=O)c2ccnn2CC)C2CCCCC2)c(F)c1)C(=O)N1CCN(C)CC1` [Compound 645], the IC50 was 100 to 10000 nM.

Consider `CCc1nonc1C(=O)N[C@H](C(=O)Nc1ccc([C@H](C)[C@@H](NC(=O)[C@H](C)F)C(=O)N2CCN(C)CC2)cc1F)[C@H]1CC[C@H](C)CC1` [Compound 491], for which the IC50 is 10 to 100 nM.
